Measured values: US20240358705A1, “COMPOSITIONS AND METHODS FOR TREATMENT OF CANCER” (Board of Supervisors of Louisiana State University and …, priority 2021, published 2024)

How the values were obtained:
BM-MDSCs [1] = assay: XFe ATP rate assay, BM-MDSCs; format: cell-based, mouse; details: 10 μM, 72 hours
Experimental: (§1) Bone marrow cells were isolated by flushing the tibia and femurs of wild-type C57BL/6N mice. […] To generate BM-MDSCs, 3×10^6 cells were plated in a 6-well dish and incubated at 37° C., 5% CO2 for 96 hours. For treatment, drugs were administered at either 3 μM or 10 μM concentrations and added to the BM-MDSC cell culture well 24 hours after plating.
Treated CD8 T cell were prepared following the in vitro T cell activation method and incubated for 72 hours at 37° C., 5% CO2. Treated BM-MDSCs were prepared followed the in vitro BM-MDSCs differentiation method. The XFe ATP rate assay preparation and analysis was conducted following the manufacturer's user guide and instructions. […] Treated cells were removed from culture, pelleted and resuspended in warm assay medium at a concentration of 3×10^6 cells/ml (1.5×10^5 cells/well) for CD8 T cells and 2.6×10^6 cells/ml (1.3×10^5 cells/well) for BM-MDSCs. Cells were adhered to the culture plate by centrifugation 200×G, for one minute with zero brake per the manufacturer's instructions for immobilization of non-adherent cells (Agilent, Santa Clara, CA). […] Results were procured using the Seahorse XF real-time ATP rate assay report generator.

BM-MDSCs [2] = assay: MDSC suppression assay; format: cell-based, mouse; details: for percent proliferation of CD3 T cells co-cultured with treated BM-MDSCs: DMSO control 40.73%
Experimental: 24-well plates were coated with […] anti-mouse CD3e and anti-mouse CD28 resuspended in PBS for two hours at 37° C., 5% C02. PBS containing coating antibodies were then removed and 1×10^6 naïve CFSE CD3 T cells in 1 ml was added to each well. Treated BM-MDSCs were removed using a rubber policeman. […] Cells were harvested and stained following the immune profiling by flow cytometry method. MDSC suppressive capacity was measured by their ability to inhibit CD3 T cell proliferation measured by CFSE dilution.

CD8 T cells [3] = assay: Quantitative PCR of glycolysis enzymes; format: cell-based, mouse; details: 3 μM and 10 μM, 48 hours
Experimental: (§2) Lymph nodes and spleen were isolated from wild-type C57BL/6N mice. Tissue was mechanically dissociated with the back of a syringe plunger and passed through a 70 M filter. […] Treated cells were incubated at 37° C., 5% CO2 for the designed study duration.

CD3 T cells = assay: Granzyme B and perforin immunoblot; format: cell-based, mouse; details: for granzyme B protein production, increase compared to DMSO / granzyme B, Log2 fold change compared to DMSO / perforin production, increase compared to DMSO / perforin, Log2 fold change compared to DMSO: 72 hours
Experimental: as §2

[4] = three separate models of NASH; cited from earlier work
OT-I CD8 T cells = assay: In vitro cytotoxicity assay (E.G7-OVA target cells); format: cell-based, mouse; details: CD8 T cells treated 72 hours (10 μM printed for GLPG1205)
Experimental: Lymph nodes and spleen were isolated from wild-type C57BL/6N mice. Tissue was mechanically dissociated with the back of a syringe plunger and passed through a […]. […] Treated cells were incubated at 37° C., 5% CO2 for the designed study duration. Treated OT-I CD8 T cells were prepared following the in vitro T cell activation method. Non-target EL4 cells (CFSE low—0.2 μM) and target E.G7-OVA cells (CFSE high—[…]) were prepared following the CFSE labeling protocol. Cells were subsequently washed, pelleted, resuspended at 1×10^6 cells/ml, and mixed at 1:1 ratio. 100 μl of the mixed cells were plated into a 96-well flat bottom plate.

CD8 T cells [5] = assay: Annexin/PI apoptosis staining, CD8; format: cell-based, mouse; details: 3 μM or 10 μM, 72 hours, vs DMSO
Experimental: as §2
Treated CD3 T cells were prepared following the in vitro T cell activation method and incubated for 72 hours at 37° C., 5% CO2.

CD8 T cells [6] = assay: 2-NBDG glucose analog uptake assay; format: cell-based, mouse; details: 72 hours
Experimental: as §2
Treated CD3 T cells were prepared following the in vitro T cell activation method and incubated for 72 hours at 37° C., 5% CO2. […] (Thermo #N13195) Cells were then incubated for one hour at 37° C., 5% CO2. After incubation, T cells were washed, pelleted and stained with anti-CD4, anti-CD8, anti-CD3 following the immune profiling by flow cytometry method. Percent uptake was calculated using mean fluorescent intensity (MFI).

BM-MDSCs [7] = details: differentiating BM-MDSCs, 3 μM or 10 μM, 72 hours
Experimental: as §1
Protein concentration was quantified using a BCA protein assay kit (Thermo #A53225). […] of protein diluted with 1×LDS sample buffer (Life Technologies #B0008) and 1×sample reducing agent (Life Technologies #B0009), were denatured at 95° C. for 5 minutes. Denatured T cell protein was resolved using a 10% Bolt Bis-Tris plus protein gel (Thermo #NW00102BOX) and denatured BM-MDSC protein was resolved using an 8% Bolt Bis-Tris plus protein gel (Thermo #NW00082BOX). Gels were transferred to a PVDF membrane (Invitrogen #IB401002) using a seven-minute P3 program on an Invitrogen iBlot dry transfer system. Membranes were then blocked for one hour using 5% nonfat dry milk in TBS-T, washed three times with TBS-T and probed with primary antibody diluted with 5% BSA in TBS-T overnight at 4° C. with gentle rocking. Primary antibody was removed, and membranes were washed three times with TBS-T followed by secondary antibody diluted in TBS-T at room temperature for one hour with gentle rocking. […]

SMILES: O=c1nc(OC[C@@H]2COCCO2)cc2n1CCc1cc(C#CC3CC3)ccc1-2 [GLPG1205, 9-Cyclopropylethynyl-2-((S)-1-[1,4]dioxan-2-ylmethoxy)-6,7-dihydropyrimido[6,1-a]isoquinolin-4-one]
- energetic phenotype (energetic map) (BM-MDSCs [1]): glycolytic-predominant quiescent phenotype
- percent of ATP generated by glycolysis (BM-MDSCs [1]; DMSO 39.85%): 45.55%
- percent of ATP generated by OXPHOS (BM-MDSCs [1]; DMSO 60.15%): 54.45%
- ATP production rate through mitochondrial OXPHOS (BM-MDSCs [1]; DMSO 690.95): 537.83 pmol/min
- total ATP production rate (BM-MDSCs [1]; DMSO control 1149.1): 987.48 pmol/min
- ECAR and PER (BM-MDSCs [1]; vs DMSO): did not observe any changes
- OCR (BM-MDSCs [1]; vs DMSO): overall reduction in OCR
- percent proliferation of CD3 T cells co-cultured with treated BM-MDSCs (BM-MDSCs [2]; BM-MDSCs treated with 3 μM): 64.99%
- percent proliferation of CD3 T cells co-cultured with treated BM-MDSCs (BM-MDSCs [2]; BM-MDSCs treated with 10 μM): 62.49%
- T cell proliferation in mixed culture of MDSC and T cells (BM-MDSCs [2]; FIG. 6 Panel A): allows T cells to proliferate (multiply) better
- gene expression of enzymes in glycolytic pathway compared to DMSO control (CD8 T cells [3]): significant dose-dependent increase
- granzyme B protein production, increase compared to DMSO (CD3 T cells; 3 μM): 3.57 times
- granzyme B, Log2 fold change compared to DMSO (CD3 T cells; 3 μM): 1.84 Log2 fold change
- perforin production, increase compared to DMSO (CD3 T cells; 3 μM): 3.09 times
- perforin, Log2 fold change compared to DMSO (CD3 T cells; 3 μM): 1.62 Log2 fold change
- granzyme B protein production, increase compared to DMSO (CD3 T cells; 10 μM): 4.04 times
- granzyme B, Log2 fold change compared to DMSO (CD3 T cells; 10 μM): 2.01 Log2 fold change
- perforin production, increase compared to DMSO (CD3 T cells; 10 μM): 3.86 times
- perforin, Log2 fold change compared to DMSO (CD3 T cells; 10 μM): 1.95 Log2 fold change
- expression of Granzyme B and Perforin (western blot) (CD3 T cells; activated T cells, high doses (FIG. 5)): dramatically increases the expression of Granzyme B and perforin
- macrophage accumulation [4]: significant decrease in macrophage accumulation
- killing capacity compared to DMSO control (percent specific lysis) (OT-I CD8 T cells): significantly improved killing capacity
- CD8 apoptosis (Annexin/PI) (CD8 T cells [5]): significantly reduced CD8 apoptosis
- 2-NBDG uptake (MFI), Log2 fold change compared to DMSO control (CD8 T cells [6]; 3 μM): 0.19 Log2 fold change
- 2-NBDG uptake, increase vs DMSO (CD8 T cells [6]; 3 μM): 13.92%
- 2-NBDG uptake (MFI), Log2 fold change compared to DMSO control (CD8 T cells [6]; 10 μM): 0.24 Log2 fold change
- 2-NBDG uptake, increase vs DMSO (CD8 T cells [6]; 10 μM): 17.74%
- GPR84 expression (BM-MDSCs [7]): only neared statistical significance
